Holding throughout (format): functional
Assay [1] is described as follows: Concentration required for 50% growth inhibition of the following cell lines Carcinoma TA-3 cells. Conditions: Mus musculus, TA3; read-out: ID50 (the source's name).
A short description of assay [2]: Concentration required for 50% growth inhibition of the following cell lines human fibro blast cells. Conditions: read-out: ID50 (the source's name).
The subject of a further assay is Burkitts lymphoma cell. Description: Concentration required for 50% growth inhibition of the following cell lines human burkitt lymphoma cells. Conditions: read-out: ID50 (the source's name).
The test system of the next assay is L1210. Kind of assay: Concentration required for 50% growth inhibition of the following cell lines Leukemia L-1210 cells. Conditions: Mus musculus, read-out: ID50 (the source's name).
In assay [3] the test system is Mus musculus. Kind of assay: Antitumor activity against slow growing spontaneous mammary tumors in the DBA/2 Ha-DD mouse % increased in life span 3.8 mg/kg/day x 5 melphalan + 50 mg/kg/day compound.
Assay [4] has as its system Mus musculus. Kind of assay: Antitumor activity against slow growing spontaneous mammary tumors in the DBA/2 Ha-DD mouse number of days reacquired fro tumor growth 3.8 mg/kg/day x 5 melphalan once in 5 days. The arrangement: unit: days.
In assay [5] the test system is Mus musculus. Kind of assay: Antitumor activity against mouse leukemia, L-1210(DBA/2 Ha Mice) mean life span ( days) of the mouse after the dosage at 1.56 mg/kg of dose per day.
The species entered for assay [6] is Mus musculus. Description: Concentration required for 50% growth inhibition of the following cell lines mouse fibro blasts. As to conditions: read-out: ID50 (the source's name).
A short description of assay [7]: Concentration required for 50% growth inhibition of human breast tumor cells SW-613 human breast adenocarcinoma cells. Conditions: SW613, read-out: ID50 (the source's name).
A short description of assay [8]: Concentration required for 50% growth inhibition of the following cell lines human bladder carcinoma cells. As to conditions: read-out: ID50 (the source's name).
The next assay concerns MCF7. Kind of assay: Concentration required for 50% growth inhibition of human breast tumor cells MCF-7 human breast carcinoma cells. As to conditions: read-out: ID50 (the source's name).
The subject of assay [9] is Mus musculus. Description: Antitumor activity against mouse leukemia, L-1210(DBA/2 Ha Mice) % increase in life span at 3.12 mg/kg of dose per day. Conditions: for ILS at 3.12 mg/kg: Mus musculus, L1210, dose 3.12 mg/kg.
Assay [10] has as its system Mus musculus. Description: Antitumor activity against slow growing spontaneous mammary tumors in the DBA/2 Ha-DD mouse mean life span in days at 50 mg/kg give 5 times once in 5 days.
The nature of assay [11]: Concentration required for 50% growth inhibition of the following cell lines sarcoma S-180 cells. Conditions: Mus musculus, read-out: ID50 (the source's name).
Assay [12] deals with Mus musculus. Description: Antitumor activity against mouse leukemia, L-1210(DBA/2 Ha Mice) mean life span (days) of the mouse after fractionated dosage(dose divided in two halves and administered in two daily injections) at 6.25 mg/kg of dose per day.
The subject of the next assay is HeLa. Kind of assay: Concentration required for 50% growth inhibition of the following cell lines Hela cells. Conditions: Homo sapiens, read-out: ID50 (the source's name).
The test system of assay [13] is Mus musculus. Kind of assay: antitumor activity against mouse leukemia, L-1210(DBA/2 Ha Mice) % increase in life span at 3.12 mg/kg of dose per day. As to conditions: L1210, dose 3.12 mg/kg.
In assay [14] the test system is Mus musculus. Description: Antitumor activity against slow growing spontaneous mammary tumors in the DBA/2 Ha-DD mouse % increased in life span 3.8 mg/kg/day x 5 melphalan + 50 mg/kg/day.

“And” between values parts separate entries of the source, which are not always exact repeats. Equal values may be shown once.

Broadly, the ILS is the gain in survival time of treated over control animals, in per cent. With `C=C(C)CNc1ncnc2c1ncn2C1O[C@H](CO)[C@@H](O)[C@H]1O` (stereo partly drawn), the IC50 came to 18 µM in assay [1]; 1.5 µM in assay [2]; 11 µM in the assay with Burkitts lymphoma cell; 19 µM in the assay with L1210; 25 µM in the assay filed under Mus musculus [6]; 4 µM in [7]. Further, the IC50 in assay [8] came out at 9 µM. The ILS in the assay on Mus musculus [3] is 19%. Besides, the Tumor half growth in the assay on Mus musculus [4] was found to be 15. Also, the Life span with Mus musculus [5] is 30.
In the case of `CC(C)Nc1ncnc2c1ncn2[C@@H]1O[C@H](CO)[C@@H](O)[C@H]1O`, the IC50 is 13 µM in [1]; 6.5 µM in assay [2]; 27 µM in the assay on Burkitts lymphoma cell; 19 µM in the assay with L1210; 6.3 µM in the assay with MCF7; 20 µM in the assay listed under Mus musculus [6]. The IC50 stood at 150 µM in assay [7], 30 µM in assay [11] and 11 µM in assay [8]. Further, the ILS with Mus musculus [9] (dose 3.12 mg/kg) was 14.7% and 17.4% and 37.4%; in the assay with Mus musculus [3], 25.5% and 60% and 63.1%. In addition, the Tumor half growth in the assay with Mus musculus [4] was 17 and 24. In addition, the Life span is 7.3 in the assay with Mus musculus [5]; 63.3 and 54.8 and 23.6 in the assay with Mus musculus [10] (50 mg/kg).
As to `OC[C@H]1O[C@@H](n2cnc3c(NCc4ccccc4)ncnc32)[C@H](O)[C@@H]1O` [N6-BENZYLADENOSINE], the IC50 was 14 µM in [1]; 11 µM in the assay with Burkitts lymphoma cell; 8.5 µM in the assay with L1210; 22 µM in the assay on MCF7; 4 µM in assay [7]; 45 µM in assay [11]. The compound further came in with an ILS at 3.12 mg/kg in the assay with Mus musculus [9] of 41%. The ILS in the assay on Mus musculus [3] was 10.9% and 26%. Moreover, the Tumor half growth in the assay with Mus musculus [4] was 20 and 21. The figures for the Life span in the assay with Mus musculus [5], in the assay on Mus musculus [12] and in the assay on Mus musculus [10] were 9.7, 38.8 and 62.6, respectively.
In the case of `C#CCNc1ncnc2c1ncn2C1O[C@H](CO)[C@@H](O)[C@H]1O` (stereo partly drawn), the IC50 in assay [1] worked out at 2.5 µM; with HeLa it was 3.5 µM; in assay [2] it was 2.8 µM; with Burkitts lymphoma cell, 8.3 µM; with L1210, 1 µM; in the assay on MCF7, 1.6 µM. In addition, the IC50 in the assay listed under Mus musculus [6] stood at 3.1 µM; in [8] it was 3.8 µM. The compound also registered an ILS at 3.12 mg/kg with Mus musculus [9] of 20%. Also, in the assay with Mus musculus [3], the ILS is recorded as 60%. In the assay on Mus musculus [4], the Tumor half growth was found to be 18. Also, the Life span with Mus musculus [5] came out at 8.2.
Consider `C=CCNc1ncnc2c1ncn2[C@@H]1O[C@H](CO)[C@@H](O)[C@H]1O`, for which the IC50 was 3 µM in assay [1]; 2.7 µM in assay [2]; 2.3 µM with Burkitts lymphoma cell; 12 µM with L1210; 1.4 µM with MCF7; 14 µM in the assay listed under Mus musculus [6]. Further, the IC50 in assay [7] is 50 µM; in [11], 20 µM; in assay [8] it was 7.5 µM. In addition, the ILS at 3.12 mg/kg with Mus musculus [13] worked out at 8%. The ILS with Mus musculus [14] was 42.8%; with Mus musculus [3], 82.5% and 38.7%. For the same compound, the Tumor half growth in the assay on Mus musculus [4] was 16 and 26 and 30. The Life span with Mus musculus [5] (1.56 mg/kg) was 8.3 and 10; in the assay with Mus musculus [10] (50 mg/kg) it was 46.6 and 48.

The record behind these values is ChEMBL document CHEMBL1121379, “Some short-chain N6-substituted adenosine analogues with antitumor properties” (1980).
